Data as given in article PMC5410339, “dUTPase inhibition augments replication defects of 5-Fluorouracil” (Oncotarget, 2017).

Experiments:
dUTPase [1] = target: T1, dUTPase (Homo sapiens, UniProt P33316); assay: malachite green activity assay with dUTP as substrate, purified recombinant enzyme; type: biochemical
T1 construct: gene DUT; human recombinant dUTPase
T1 sequence (P33316 70-252): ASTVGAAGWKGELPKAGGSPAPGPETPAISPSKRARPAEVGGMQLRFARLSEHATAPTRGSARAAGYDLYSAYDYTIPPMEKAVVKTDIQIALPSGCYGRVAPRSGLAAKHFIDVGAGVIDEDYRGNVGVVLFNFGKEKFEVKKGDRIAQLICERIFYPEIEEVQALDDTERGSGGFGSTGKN

dUTPase [2] = target: T1, dUTPase; assay: malachite green assay of substrate hydrolysis by purified enzyme; type: biochemical

Compound	IC50 (dUTPase [1])	malachite green assay of substrate hydrolysis by purified enzyme (dUTPase [2])
O=C(CCCn1ccc(=O)[nH]c1=O)N1CCC[C@H]1C(c1ccccc1)c1ccccc1 [compound 1]	740 nM	
O=c1[nH]c(=O)n([C@H]2C[C@H](O)[C@@H](COP(=O)(O)OP(=O)(O)OP(=O)(O)O)O2)cc1F [5-FdUTP]		5.5 μM formed PPi per second per μM enzyme
O=c1ccn([C@H]2C[C@H](O)[C@@H](COP(=O)(O)OP(=O)(O)OP(=O)(O)O)O2)c(=O)[nH]1 [dUTP]		6.6 μM formed PPi per second per μM enzyme
CC(NS(=O)(=O)CCCOCn1ccc(=O)[nH]c1=O)c1cccc(OC2CCCC2)c1 (stereo not shown) [compound 2]	25 nM	
